According to ChEMBL document CHEMBL5325413, “Optimization of BAX trigger site activator BTSA1 with improved antitumor potency and in vitro ADMET properties” (Eur J Med Chem, 2023):
Calls of active or inactive are those of the source. No cut-off for these calls is given here.

How the values were obtained:
[1] = Stability in rat plasma assessed as compound remaining measured immediately; type: ADME, cell-free; settings: read-out: Stability
[2] = tested on: A549; test: Induction of apoptosis in human A549 cells assessed as dead cells at 20 uM incubated for 48 hrs by Annexin V-FITC/PI staining based flow cytometry analysis (reference value: 0.535%); type: functional
[3] = tested on: A549; test: Induction of apoptosis in human A549 cells assessed as early apoptotic cells at 20 uM incubated for 48 hrs by Annexin V-FITC/PI staining based flow cytometry analysis (reference value: 1.09 %); type: functional
[4] = mouse, microsomes, 1 h, 100 µM
[5] = tested on: A549; test: Induction of apoptosis in human A549 cells assessed as total apoptotic cells at 20 uM incubated for 48 hrs by Annexin V-FITC/PI staining based flow cytometry analysis (reference value: 4.26%); type: functional
[6] = tested on: THP-1; test: Antiproliferative activity against human THP-1 cells expressing BAX assessed as cell growth inhibition incubated for 72 hrs by trypan blue cell counting analysis; type: functional
[7] = Stability in rat plasma assessed as compound remaining measured after 60 mins; type: ADME, cell-free; settings: read-out: Stability
[8] = Stability in rat plasma assessed as half life; type: ADME, cell-free
[9] = tested on: A549; test: Induction of apoptosis in human A549 cells assessed as nuclear fragmentation at 20 to 80 uM incubated for 48 hrs by Hoechst 33342 staining based fluorescence microscopic analysis; type: functional, cell-based; settings: dose 20-80 µM
[10] = tested on: MV4-11; test: Antiproliferative activity against human MV4-11 cells expressing BAX assessed as cell growth inhibition incubated for 72 hrs by trypan blue cell counting analysis; type: functional
[11] = tested on: A549; test: Induction of apoptosis in human A549 cells assessed as early apoptotic cells at 10 uM incubated for 48 hrs by Annexin V-FITC/PI staining based flow cytometry analysis (reference value: 0.708%); type: functional
[12] = tested on: NCI-H1581; test: Antiproliferative activity against human NCI-H1581 cells expressing BAX assessed as cell growth inhibition incubated for 72 hrs by MTT assay; type: functional
[13] = Metabolic stability in mouse liver microsomes assessed as parent compound remaining at 100 uM incubated for 60 mins in presence of NADPH by LC-MS/MS analysis
[14] = tested on: A549; test: Induction of cell cycle arrest in human A549 cells assessed as accumulation of cells at S phase at 10 uM incubated for 48 hrs by RNase/PI staining based flow cytometry analysis (reference value: 26.01%); type: functional
[15] = tested on: A549; test: Inhibition of colony formation in human A549 cells at 20 uM incubated for 2 weeks by crystal violet staining based analysis; type: functional, cell-based
[16] = tested on: A549; test: Induction of apoptosis in human A549 cells assessed as live cells at 20 uM incubated for 48 hrs by Annexin V-FITC/PI staining based flow cytometry analysis (reference value: 95.9 %); type: functional
[17] = human, microsomes, 1 h, 100 µM
[18] = Stability in rat plasma assessed as compound remaining measured after 10 mins; type: ADME, cell-free; settings: read-out: Stability
[19] = tested on: A549; test: Induction of apoptosis in human A549 cells assessed as cell rounding at 20 to 80 uM incubated for 48 hrs by Hoechst 33342 staining based fluorescence microscopic analysis; type: functional; settings: dose 20-80 µM
[20] = tested on: A549; test: Induction of cell cycle arrest in human A549 cells assessed as accumulation of cells at G2/M phase at 10 uM incubated for 48 hrs by RNase/PI staining based flow cytometry analysis (reference value: 18.97%); type: functional
[21] = tested on: A549; test: Induction of apoptosis in human A549 cells assessed as total apoptotic cells at 40 uM incubated for 48 hrs by Annexin V-FITC/PI staining based flow cytometry analysis (reference value: 4.26%); type: functional
[22] = tested on: A549; test: Antiproliferative activity against human A549 cells assessed as reduction in cell viability at 5 to 25 uM by MTT assay; type: functional, cell-based; settings: dose 5-25 µM, time 24-72 hrs, TDE = time-dependent effect
[23] = in vitro; settings: human, liver microsomes
[24] = mouse, 1 h, 100 µM
[25] = tested on: A549; test: Induction of apoptosis in human A549 cells assessed as late apoptotic cells at 10 uM incubated for 48 hrs by Annexin V-FITC/PI staining based flow cytometry analysis (reference value: 2.15%); type: functional
[26] = Metabolic stability in human liver microsomes assessed as parent compound remaining at 100 uM incubated for 60 mins in absence of NADPH by LC-MS/MS analysis
[27] = tested on: A549; test: Induction of apoptosis in human A549 cells assessed as late apoptotic cells at 20 uM incubated for 48 hrs by Annexin V-FITC/PI staining based flow cytometry analysis (reference value: 2.52%); type: functional
[28] = tested on: A549; test: Induction of apoptosis in human A549 cells assessed as dead cells at 40 uM incubated for 48 hrs by Annexin V-FITC/PI staining based flow cytometry analysis (reference value: 0.535%); type: functional
[29] = tested on: HCT-116; test: Antiproliferative activity against human HCT-116 cells assessed as cell growth inhibition incubated for 72 hrs by MTT assay; type: functional
[30] = tested on: A549; test: Induction of cell cycle arrest in human A549 cells assessed as accumulation of cells at G0/G1 phase at 10 uM incubated for 48 hrs by RNase/PI staining based flow cytometry analysis (reference value: 54.82%); type: functional
[31] = tested on: A549; test: Induction of apoptosis in human A549 cells assessed as dead cells at 10 uM incubated for 48 hrs by Annexin V-FITC/PI staining based flow cytometry analysis (reference value: 0.739%); type: functional
[32] = tested on: A549; test: Induction of apoptosis in human A549 cells assessed as late apoptotic cells at 40 uM incubated for 48 hrs by Annexin V-FITC/PI staining based flow cytometry analysis (reference value: 2.52%); type: functional
[33] = tested on: A549; test: Induction of apoptosis in human A549 cells assessed as live cells at 40 uM incubated for 48 hrs by Annexin V-FITC/PI staining based flow cytometry analysis (reference value: 95.9 %); type: functional
[34] = tested on: PC-3; test: Antiproliferative activity against human PC-3 cells assessed as cell growth inhibition incubated for 72 hrs by MTT assay; type: functional
[35] = tested on: MDA-MB-231; test: Antiproliferative activity against human MDA-MB-231 cells expressing BAX assessed as cell growth inhibition incubated for 72 hrs by MTT assay; type: functional
[36] = Metabolic stability in mouse liver microsomes assessed as parent compound remaining at 100 uM incubated for 60 mins in absence of NADPH by LC-MS/MS analysis
[37] = Stability in rat plasma assessed as compound remaining measured after 30 mins; type: ADME, cell-free; settings: read-out: Stability
[38] = in vitro; settings: mouse, liver microsomes
[39] = tested on: A549; test: Induction of apoptosis in human A549 cells assessed as formation of apoptotic bodies at 20 to 80 uM incubated for 48 hrs by Hoechst 33342 staining based fluorescence microscopic analysis; type: functional, cell-based; settings: dose 20-80 µM
[40] = Metabolic stability in human liver microsomes assessed as parent compound remaining at 100 uM incubated for 60 mins in presence of NADPH by LC-MS/MS analysis
[41] = tested on: A549; test: Induction of apoptosis in human A549 cells assessed as live cells at 10 uM incubated for 48 hrs by Annexin V-FITC/PI staining based flow cytometry analysis (reference value: 96.4%); type: functional
[42] = tested on: A549; test: Antiproliferative activity against human A549 cells assessed as cell growth inhibition incubated for 72 hrs by MTT assay; type: functional
[43] = tested on: K562; test: Antiproliferative activity against human K562 cells expressing BAX assessed as cell growth inhibition incubated for 72 hrs by trypan blue cell counting analysis; type: functional
[44] = tested on: A549; test: Induction of apoptosis in human A549 cells assessed as total apoptotic cells at 10 uM incubated for 48 hrs by Annexin V-FITC/PI staining based flow cytometry analysis (reference value: 2.86%); type: functional
[45] = Stability in rat plasma assessed as compound remaining measured after 120 mins; type: ADME, cell-free; settings: read-out: Stability

Work on `O=C1/C(=N\Nc2nccs2)C(c2ccccc2)=NN1c1nc(-c2ccccc2)cs1` yielded a remaining at 0 min [1] of 100%, an Activity [2] of 0.486% and an Activity [3] of 3.21%. For the same compound, the CLint [4] was 15.8 µL/min/mg, the Activity [5] was 5.91% and the GI50 [6] was > 10 µM. For the same compound, the remaining at 1 h [7] was 100%, the half-life [8] was > 4.82 h and the Activity [9] was “Active”. For the same compound, the GI50 [10] was 6.29 µM, the Activity [11] was 0.844% and the GI50 [12] was 6.22 µM. For the same compound, the remaining at 1 h, 100 µM [13] was 59.4%, the Activity [14] was 24.77% and the inhibition [15] was “Active”. The Activity [16] was 93.6%, the CLint [17] was 21.3 µL/min/mg and the remaining at 10 min [18] was 101%. For the same compound, the Activity [19] was “Active”, the Activity [20] was 10.12% and the Activity [21] was 14.92%. The Activity [22] was “Tde”, the half-life at 1 h, 100 µM [23] was 1.08 h and the CLH [24] was 3.76 mL/h/kg. For the same compound, the Activity [25] was 2.97%, the remaining at 1 h, 100 µM [26] was 94.2% and the Activity [27] was 2.7%. For the same compound, the Activity [28] was 2.82%, the GI50 [29] was 12.5 µM and the Activity [30] was 57.42%. For the same compound, the Activity [31] was 0.651%, the Activity [32] was 10.2% and the Activity [33] was 82.2%. The GI50 [34] was 14.3 µM, the GI50 [35] was > 20 µM and the remaining at 1 h, 100 µM [36] was 84.8%. The remaining at 0.5 h [37] was 98.2%, the half-life at 1 h, 100 µM [38] was 1.46 h and the Activity [39] was “Active”. It also gave a remaining at 1 h, 100 µM [40] of 55.6%, an Activity [41] of 95.5% and a GI50 [42] of 14.5 µM. The GI50 [43] was > 4 µM, the Activity [44] was 3.81% and the remaining at 2 h [45] was 98.6%.
